Laboratory results: patent US20020055702A1, “ULTRASOUND-MEDIATED DRUG DELIVERY” (priority 1998, published 2002)
Entries after “also recorded” stand apart in the source; their conditions may differ.

Tested on: corpus cavernosum
Experiment: Intracorporal (cavernosal) pressure in anesthetized male dogs after topical papaverine gel with or without ultrasound
Type: in vivo, dog
From the text: The invention has reduced to practice and the principles of the invention have been proven by animal experiments. In these experiments, male dogs, one year old, were anesthetized and a midline abdominal incision was made from the xyphoid process down to the symphisis pubis. Proceeding slightly lateral to the left side of the penis, the corpus cavernosum was exposed. Two butterfly needles were placed into one of the corpus cavernosum, one proximally and one distally. The proximal needle was used for intracorporal pressure recordings, while saline was infused through the distal needle. Controlled intracorporal blood pressure (without applying any drugs) was monitored and recorded while saline was perfused at a rate of 1.7 ml/min. Nude mice skin was used to cover the exposed corpora by stitching it to the dog's incised skin. A gel containing 500 mg papaverine (in a base of polyethylene glycol, methyl paraben, butyl paraben, and butylated hydroxytoluene) was applied on the surface of the nude mice skin followed by the application of an ultrasound probe of 1 MHz, pulse mode 30%, at a power level of 2 w/cm^2, for 20 min. In the control experiments, papaverine was applied topically without any ultrasound application and the manometric pressure was monitored. The resulting manometric pressure was compared to the control pressure by measuring the time needed to reach the peak pressure and the time needed for the cavernosal pressure to decline to baseline.
Perfusion of the corpora with saline (with no ultrasound or papaverine application) was performed for 15 sec at a rate of 1.7 ml/min. creating a pressure ranging from 150-220 cm. H2O. The time needed for this pressure to drop to baseline (0-5) was 30 sec. Perfusion of the corpora with saline after applying ultrasound and papaverine reached the same pressure peak in only 5 sec. Moreover, the pressure declined to baseline in 1.5 minutes.

[1] = papaverine gel plus ultrasound versus baseline (saline only)

In the case of COc1ccc(Cc2nccc3cc(OC)c(OC)cc23)cc1OC [papaverine], the “time needed to reach the peak pressure” value (gel with 500 mg papaverine on nude mice skin over corpora, ultrasound 1 MHz, pulse mode 30%, 2 w/cm^2, 20 min, saline perfusion 1.7 ml/min) is reported as 5 s, the “time needed for the cavernosal pressure to decline to baseline” value (gel with 500 mg papaverine plus ultrasound 1 MHz, pulse mode 30%, 2 w/cm^2, 20 min, saline perfusion 1.7 ml/min) is reported as 1.5 min and the “manometric pressure result compared to saline-only control” value (papaverine gel on the skin for 20 min, no ultrasound) is reported as “same results as in the control experiments; also recorded: no greater pressure readings than the no-drug control”. The “manometric pressure result with ultrasound” value (papaverine gel plus ultrasound treatment) was “rise in pressure which was consistent with erection”, the “improvement in the period of time established as a baseline for the establishment of erection” value [1] was 300% and the “persistence of effects relative to the baseline erection parameters” value [1] was 500%.
